Source: PubChem BioAssay AID2060910 (Molecular Pharmacology Branch, DTP, NCI, 2025)

Test system: 242566-281-R-J2-PDC complex spheroid viability
Assay: Anticancer human tumor 242566-281-R-J2-PDC patient-derived pancreatic carcinoma cell line growth inhibition [RAS]
Conditions: for IC50: curve of first compound; for viability, T/C: stronger effect = lower value
Source text: RAS pathway inhibitors in Combinations in Complex Spheroids
A high-throughput screen of multi-cell type tumor spheroids was designed to identify active combinations of RAS pathway inhibitors and targeted small molecules. Complex spheroids include a stromal component modeled by human endothelial cells (HUVEC) and fibroblasts modeled by human mesenchymal stem cells (MSCs). The concentration ranges selected for each drug and investigational agent were based upon clinically achievable concentrations if the clinical Cmax of the agent was known.
Compounds. The drugs and investigational agents: abemaciclib (NSC768073), cobimetinib (NSC768068), divarasib (GDC6063, NSC841802), docetaxel (NSC628503), GDC-1971 (RLY-1971, NSC841576), gemcitabine (NSC613327), inavolisib (NSC800729), ipatasertib (NSC767898), KB-0742 (NSC834161), MRTX-1133 (NSC836407), osimertinib (NSC779217), RMC-4630 (NSC839698), RMC-6236 (NSC851965), RMC-6291 (NSC852671), Ro-3306 (NSC812927), sapanisertib (NSC764658), SN-38 (NSC673596), staurosporine (NSC755774), SY5609 (NSC837396), and tovorafenib (DAY101, NSC766906), were obtained from the National Cancer Institute (NCI) Developmental Therapeutics Program Chemical Repository. The FDA-approved anticancer drug set is available from the NCI Developmental Therapeutics Program. […] The stock solutions were prepared in dimethyl sulfoxide (DMSO, Sigma-Aldrich, St. Louis, MO, cat. D2650) at 800-fold the tested concentration and stored at -70 degrees C prior to their use. All drugs and investigational agents were tested over a range starting from a high concentration at or near the clinical Cmax and decreasing in half-log increments. If the clinical Cmax for an agent had not been determined, the highest concentration tested was 10 microM.
Cell Culture. All cells were maintained in an incubator at 37 degrees C and 5% CO2 with 95% humidity. The PDC lines were cultured according to standard operating procedures established by the NCI PDMR. All PDCs were thawed and cultured in Matrigel-coated flasks prepared with a working solution of 1X Ham's F-12 nutrient mix, without supplementation (Invitrogen, Waltham, MA, cat. 11765054), 100 U/mL penicillin-streptomycin (Invitrogen, cat. 15140122), and 2.5% Matrigel (Corning Inc., Corning, NY, cat. 354248) for the first three passages. The 362531-283-R-J2-PDC and 782815-120-R-J1-PDC lines were cultured in 6C/Colon 1B media, which includes advanced DMEM/F-12 (Thermo Fisher Scientific, cat. 12634028), 10 mM HEPES (Thermo Fisher Scientific, cat. 15630080), 1X GlutaMAX supplement (Thermo Fisher Scientific, cat. 35050061), 0.1 mg/mL primocin (InvivoGen, San Diego, CA, cat. ant-pm-2), 10% defined fetal bovine serum, heat inactivated (HyClone Laboratories Inc., Logan, UT, cat. SH30070.03HI), 50% L-WRN conditioned media (ATCC, cat. CRL-3276), 1.25 mM N-Acetyl-L-cysteine (Sigma-Aldrich, cat. A9165), 10 mM nicotinamide (Sigma-Aldrich, cat. N0636), 1X B-27 supplement (Thermo Fisher Scientific, cat. 17504044), 1X N-2 supplement (Thermo Fisher Scientific, cat. 17502048), 50 ng/mL human EGF (Thermo Fisher Scientific, cat. PHG0311), and 10 microM Y-27632 dihydrochloride (Tocris Bioscience, cat. 1254). The K12877-001-R-J1-PDC line was cultured in 6I media, which includes all 6C/Colon 1B media plus 10 ng/mL human FGF-10 (PeproTech, cat. 100-26), 1 ng/mL human FGF-2 (PeproTech, cat. 100-18B), 1 µM prostaglandin E2 (Tocris Bioscience, cat. 2296), […] hydrocortisone (Sigma-Aldrich, cat. H4001), and […] bovine insulin (Sigma-Aldrich, cat. I6634). The K86415-001-R-J1-PDC line was cultured in 6D media, which includes all 6C/Colon 1B media components minus the L-WRN conditioned media. The 485176-168-R4-J1-PDC was cultured in PANC media, which includes all 6C/Colon 1B media plus 100 ng/mL human FGF-10 (PeproTech, cat. 100-26), 500 nM SB-431542 (Selleckchem, cat. S1067), and 10 nM gastrin (Tocris Bioscience, cat. 3006). […]

[1] = second compound 0.0316 µM, first compound 0.0316 µM
[2] = second compound 0.0316 µM, first compound 0.1 µM
[3] = second compound 0.1 µM, first compound 0.0316 µM
[4] = second compound 0.1 µM, first compound 0.1 µM
[5] = second compound 0.316 µM, first compound 0.0316 µM
[6] = second compound 0.316 µM, first compound 0.1 µM
[7] = second compound 1 µM, first compound 0.0316 µM
[8] = second compound 1 µM, first compound 0.1 µM
[9] = second compound 3.16 µM, first compound 0.0316 µM
[10] = second compound 3.16 µM, first compound 0.1 µM
[11] = second compound 10 µM, first compound 0.0316 µM
[12] = second compound 10 µM, first compound 0.1 µM
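Also: spheroids exposed to compound for 7 days before readout.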
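For viability, T/C in this document: 100% = DMSO vehicle control wells.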

Structure (SMILES): CC(C)n1nc(-c2ccc3oc(N)nc3c2)c2c(N)ncnc21 + C#Cc1c(F)ccc2cc(O)cc(-c3ncc4c(N5CC6CCC(C5)N6)nc(OCC56CCCN5CC(F)C6)nc4c3F)c12
- IC50 (second compound 0.0316 µM): 67.5 nM
- IC50 (second compound 0.1 µM): 9.86 nM
- IC50 (second compound 0.316 µM): 6.58 nM
- IC50 (second compound 1 µM): 3.24 nM
- IC50 (second compound 3.16 µM): 0.918 nM
- IC50 (second compound 10 µM): 0.639 nM
- viability, T/C (second compound 0.0316 µM, first compound 0.000316 µM): 91.9%
- viability, T/C (second compound 0.0316 µM, first compound 0.001 µM): 95.8%
- viability, T/C (second compound 0.0316 µM, first compound 0.00316 µM): 77.1%
- viability, T/C (second compound 0.0316 µM, first compound 0.01 µM): 61.3%
- viability, T/C [1]: 50.5%
- viability, T/C [2]: 49.3%
- viability, T/C (second compound 0.1 µM, first compound 0.000316 µM): 81.4%
- viability, T/C (second compound 0.1 µM, first compound 0.001 µM): 80.2%
- viability, T/C (second compound 0.1 µM, first compound 0.00316 µM): 70.3%
- viability, T/C (second compound 0.1 µM, first compound 0.01 µM): 49.9%
- viability, T/C [3]: 40.6%
- viability, T/C [4]: 40%
- viability, T/C (second compound 0.316 µM, first compound 0.000316 µM): 78.3%
- viability, T/C (second compound 0.316 µM, first compound 0.001 µM): 73.5%
- viability, T/C (second compound 0.316 µM, first compound 0.00316 µM): 57.9%
- viability, T/C (second compound 0.316 µM, first compound 0.01 µM): 44.5%
- viability, T/C [5]: 38%
- viability, T/C [6]: 31.3%
- viability, T/C (second compound 1 µM, first compound 0.000316 µM): 57.9%
- viability, T/C (second compound 1 µM, first compound 0.001 µM): 64%
- viability, T/C (second compound 1 µM, first compound 0.00316 µM): 50.4%
- viability, T/C (second compound 1 µM, first compound 0.01 µM): 29.4%
- viability, T/C [7]: 28.7%
- viability, T/C [8]: 27.8%
- viability, T/C (second compound 3.16 µM, first compound 0.000316 µM): 63.4%
- viability, T/C (second compound 3.16 µM, first compound 0.001 µM): 46.9%
- viability, T/C (second compound 3.16 µM, first compound 0.00316 µM): 39.2%
- viability, T/C (second compound 3.16 µM, first compound 0.01 µM): 30.7%
- viability, T/C [9]: 24.1%
- viability, T/C [10]: 19.8%
- viability, T/C (second compound 10 µM, first compound 0.000316 µM): 55%
- viability, T/C (second compound 10 µM, first compound 0.001 µM): 48%
- viability, T/C (second compound 10 µM, first compound 0.00316 µM): 37.9%
- viability, T/C (second compound 10 µM, first compound 0.01 µM): 29.1%
- viability, T/C [11]: 21.7%
- viability, T/C [12]: 17.8%

Structure (SMILES): CC(Nc1ccc2c(c1)OCCn1cc(N3C(=O)OCC3C(F)F)nc1-2)C(N)=O (centres undefined) + C#Cc1c(F)ccc2cc(O)cc(-c3ncc4c(N5CC6CCC(C5)N6)nc(OCC56CCCN5CC(F)C6)nc4c3F)c12
- IC50 (second compound 0.0316 µM): 437 nM
- IC50 (second compound 0.1 µM): 184 nM
- IC50 (second compound 0.316 µM): 106 nM
- IC50 (second compound 1 µM): 60.3 nM
- IC50 (second compound 3.16 µM): < 31.6 nM
- IC50 (second compound 10 µM): < 31.6 nM
- viability, T/C [1]: 101%
- viability, T/C [2]: 82.8%
- viability, T/C (second compound 0.0316 µM, first compound 0.316 µM): 56.6%
- viability, T/C (second compound 0.0316 µM, first compound 1 µM): 32.5%
- viability, T/C (second compound 0.0316 µM, first compound 3.16 µM): 22.3%
- viability, T/C (second compound 0.0316 µM, first compound 10 µM): 14.2%
- viability, T/C [3]: 75%
- viability, T/C [4]: 63.7%
- viability, T/C (second compound 0.1 µM, first compound 0.316 µM): 37.3%
- viability, T/C (second compound 0.1 µM, first compound 1 µM): 22.4%
- viability, T/C (second compound 0.1 µM, first compound 3.16 µM): 13.2%
- viability, T/C (second compound 0.1 µM, first compound 10 µM): 8.11%
- viability, T/C [5]: 68%
- viability, T/C [6]: 51.2%
- viability, T/C (second compound 0.316 µM, first compound 0.316 µM): 24.8%
- viability, T/C (second compound 0.316 µM, first compound 1 µM): 8.79%
- viability, T/C (second compound 0.316 µM, first compound 3.16 µM): 7.1%
- viability, T/C (second compound 0.316 µM, first compound 10 µM): 4.15%
- viability, T/C [7]: 58.1%
- viability, T/C [8]: 43.7%
- viability, T/C (second compound 1 µM, first compound 0.316 µM): 23%
- viability, T/C (second compound 1 µM, first compound 1 µM): 9.54%
- viability, T/C (second compound 1 µM, first compound 3.16 µM): 6.78%
- viability, T/C (second compound 1 µM, first compound 10 µM): 3.29%
- viability, T/C [9]: 46.5%
- viability, T/C [10]: 39.2%
- viability, T/C (second compound 3.16 µM, first compound 0.316 µM): 14%
- viability, T/C (second compound 3.16 µM, first compound 1 µM): 9.39%
- viability, T/C (second compound 3.16 µM, first compound 3.16 µM): 5.47%
- viability, T/C (second compound 3.16 µM, first compound 10 µM): 3.71%
- viability, T/C [11]: 44%
- viability, T/C [12]: 32.7%
- viability, T/C (second compound 10 µM, first compound 0.316 µM): 19.8%
- viability, T/C (second compound 10 µM, first compound 1 µM): 6.3%
- viability, T/C (second compound 10 µM, first compound 3.16 µM): 5.27%
- viability, T/C (second compound 10 µM, first compound 10 µM): 2.24%
